How the values were obtained:
[1] = tested on: A-10 rat thoracic aorta cells; assay: PDGF-stimulated smooth muscle cell proliferation assay (BrdU); assay type: cell-based; conditions: 10 μM compound, 10 ng/mL PDGF, A-10 cells, percent of total challenge-stimulated proliferation
Description: Effects on cell proliferation were measured using a bromodeoxyuridine (BrdU) incorporation assay. […] Serum free media containing 0.1% BSA was added to the cells. 24 hours later the media was removed and replaced with warmed serum free media. […] Proliferation was then monitored using the BrdU Cell Proliferation Assay, HTS (Calbiochem cat. #HTS01). BrdU was allowed to incorporate into cells for 24 hours prior to the addition of fixative/denaturing solution and the fluorometric detection of incorporated BrdU using a BrdU antibody as per manufacturer's directions. Data are reported as a percent of the PDGF-stimulated BrdU incorporation.

[2] = tested on: rat trachea rings; assay: Tracheal relaxation assay (carbachol precontracted rings); conditions: for Percentage of carbachol-induced contraction at 10 μM compound, Avg %: 1 μM carbachol; for IC50: Rattus norvegicus, read-out: IC50 Avg;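 for all read-outs here: isometric tension of rat tracheal rings in Krebs buffer with 1 µM indomethacin, compounds added cumulatively at 30 min intervals, basal tension subtracted, fit to Hill equation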
Description: The effects of compounds to induce relaxation of pre-contracted rat trachealis were determined. […] Trachea were excised, cleaned of connective tissue and cut into cylindrical segments of 2-3 mm length. Two stainless steel wires were guided through the lumen of the tracheal ring. One wire was fixed in the tissue bath and the other was connected to a force transducer via surgical silk. […] Indomethacin (1 μM), a cyclooxygenase inhibitor, was added to the Krebs buffer and was present throughout the experiments. Contractile tensions were measured using an isometric force transducer (Grass Instruments) and signals were analyzed using specialized software (Chart v5.5, ADInstruments). The preparations were allowed to equilibrate at a resting tension of 0.3 to 0.5 gm prior to two challenges with 60 mM KCl to assess tissue viability. After washing, tissues were treated with 1 μM carbachol for 10 to 15 minutes to induce a contractile response. Test Compounds were added cumulatively to the bath every 30 minutes and reductions in tension were recorded. Basal tension was subtracted from all values and data were reported as a percentage of the maximal carbachol-induced contraction. Data were fit to the Hill equation using GraphPad Prism v5 software.

[3] = Rat oral pharmacokinetics (plasma); assay type: in vivo; conditions: rat, oral, 20-30 μmol/kg, plasma, mean of n = 3
Description: Plasma (EDTA K2 anticoagulant) was collected from male, cannulated, CD Sprague Dawley rats to determine the pharmacokinetics of formulations containing compound inhibitors of Rho kinase. Each animal was dosed orally with a 4 ml/kg solution or suspension of each test compound in 10 mM acetate buffered saline, pH 4.5 at a final concentration range of 20-30 μmol/kg. Blood was collected at 0.25, 0.5, 1, 2, 4, 6, 8, and 24 hours. Plasma samples were assayed for the concentration of the test compound using an on-line, solid phase extraction LC/MS/MS analysis system.
Samples were analyzed on a QSTAR Elite, hybrid quadrupole time-of-flight mass spectrometer (Applied Biosystems, Framingham, Mass.) coupled with a Symbiosis Pharma integrated, on-line SPE-HPLC system (Spark Holland Inc., Plainsboro, N.J.). Analyst QS 2.0 software was used for instrument control, data acquisition and processing. […] Mobile Phase A consisted of 0.1% ammonium hydroxide in water and Mobile Phase B consisted of 0.1% formic acid in acetonitrile. Pharmacokinetic analyses were performed using WinNonlin software version 5.2 (Pharsight Corporation, Mountain View, Calif.).
As determined from the plasma concentration versus time curves, the time to peak and peak exposure are represented by the values Tmax and Cmax, respectively. The AUC values (nM*hr) shown were calculated as the areas under the plasma concentration versus time curves from time zero through the time of the last observable value and represent the total exposure of the compound over the course of the study. Half-life values or the amount of time required for the plasma levels of the compound to decline to half the initial value are represented as t1/2.

[4] = tested on: rat aorta; assay: Aortal relaxation assay (norepinephrine precontracted rings); conditions: 100 μM compound, 100 nM norepinephrine; FIG. 4B
Description: This assay is a model for selecting compounds for treating diseases that involve constriction of arterial smooth muscle, such as atherosclerosis and systemic hypertension. The effects of compounds to induce relaxation of pre-contracted rat pulmonary artery and rat aorta were determined. […] Pulmonary artery or aorta were excised, cleaned of connective tissue and cut into cylindrical segments of 2-3 mm length. The preparations were mounted in a tissue bath by tying two threads of surgical silk through the lumen of the vessel. One silk was used to anchor the tissue to a metal wire in the bath and the other silk was connected to a force transducer. […] Contractile tensions were measured using an isometric force transducer (Grass Instruments) and signals were analyzed using specialized software (Chart v5.5, ADInstruments). The preparations were allowed to equilibrate at a resting tension of 0.1 to 0.2 gm for pulmonary artery and 2.0 gm for aorta prior to two challenges with 80 mM KCl to assess tissue viability. […] For pulmonary artery, compounds were added cumulatively to the bath every 30 minutes and reductions in tension were recorded. Basal tension was subtracted from all values and data was reported as a percentage of the maximal norephinephrine-induced contraction. […] For aorta, a single dose of compound was added and reductions in tension were recorded.

[5] = tested on: rat pulmonary artery; assay: Pulmonary arterial relaxation assay (norepinephrine precontracted rings)
Description: Pulmonary artery or aorta were excised, cleaned of connective tissue and cut into cylindrical segments of 2-3 mm length. The preparations were mounted in a tissue bath by tying two threads of surgical silk through the lumen of the vessel. One silk was used to anchor the tissue to a metal wire in the bath and the other silk was connected to a force transducer. […] Contractile tensions were measured using an isometric force transducer (Grass Instruments) and signals were analyzed using specialized software (Chart v5.5, ADInstruments). The preparations were allowed to equilibrate at a resting tension of 0.1 to 0.2 gm for pulmonary artery and 2.0 gm for aorta prior to two challenges with 80 mM KCl to assess tissue viability. After washing, tissues were treated with 100 nM norepinephrine for 5 to 10 minutes to induce a contractile response. For pulmonary artery, compounds were added cumulatively to the bath every 30 minutes and reductions in tension were recorded. Basal tension was subtracted from all values and data was reported as a percentage of the maximal norephinephrine-induced contraction. Data were fit to the Hill equation using GraphPad Prism v5 software. For aorta, a single dose of compound was added and reductions in tension were recorded.

SMILES	Percent of PDGF Induced Proliferation at 10 μM Avg [1] [%]	Percentage of carbachol-induced contraction at 10 μM compound, Avg % [2] [%]	IC50 [2] [µM]	AUC (0-last) [3]	Cmax [3]	Tmax [3]	Vz_F [3]	t½ [3]	norepinephrine-induced contractile response (tension) of aortal ring [4]	relaxant response in precontracted pulmonary artery ([5]; 100 nM norepinephrine precontracted, FIG. 4A)	IC50 ([5]; Rattus norvegicus, read-out: IC50 for compound-induced relaxation) [µM]
CSc1ccc(CN2CC[C@@H](Nc3cccc4cnccc34)C2)cc1 [Compound 2.026, (R)-N-(1-(4-(methylthio)benzyl)pyrrolidin-3-yl)isoquinolin-5-amine]	52.0	17.1	2.86	BLQ	BLQ	BLQ	BLQ	BLQ	–	–	–
OCCOc1cccc(CN2CC[C@@H](Nc3cccc4cnccc34)C2)c1 [Compound 2.039, (R)-2-(3-((3-(isoquinolin-5-ylamino)pyrrolidin-1-yl)methyl)phenoxy)ethanol]	–	6.2	0.343	–	–	–	–	–	fully reversed	fully relaxed	0.151

Source: patent publication US20130172324A1, “METHOD FOR TREATING CARDIOVASCULAR DISEASES USING RHO KINASE INHIBITOR COMPOUNDS” (priority 2008, published 2013)
